Reference: patent publication US7662769B2, “Glycosyltransferase GnT-V having neovascularization action” (Suntory Holdings Limited, priority 2002, dated 2010)
Entries after “also recorded” stand apart in the source; their conditions may differ. Where no end group is shown, it is not given here.

Assays:
[1] = tested on: chicken microvessels; test: CAM (chorioallantoic membrane) assay of neovascularization; assay type: in vivo; details: ex-vivo, chicken embryo CAM
Description: Acceleration of neovascularization by a GnT-V transformant was confirmed by a CAM (chorioallantoic membrane) assay using an embryo of a chicken fertilized egg. The CAM assay was conducted by a method of Yen et al. (Yen, L., et al., Oncogene 19, 3460-3469 (2000)) and a method of Bernardini (Bernardini, G., et al., Blood 96, 4039-4045 (2000)), both being slightly modified. CAM 8 days after fertilization of white Leghorn was used, and 1×10^5 cells thereof were inoculated on a collagen sponge and maintained for 4 hours. A 5 mm silicon ring was placed on CAM on the collagen sponge and maintained for 48 hours.
Induction of neovascularization by GnT-V was confirmed also by other in vitro neovascularization assays such as a capillary-like tube formation assay (Ashoton, A. W., et al., J. Biol. Chem. 274, 35562-35570 (1999)) and a migration assay (Zeng, H., et al., J. Biol. Chem. 276, 3271-3279 (2001)) using HUVEC.

[2] = tested on: HSPG on HUVEC; test: release of FGF-2 from HSPG on HUVEC (FGF-2 ELISA of supernatant); assay type: cell-based, human; details: 4° C., 2 hours; FIG. 5
Text: A basic peptide (KRKRKK peptide) composed of Lys-Arg-Lys-Arg-Lys-Lys (SEQ ID NO: 11) which is an amino acid sequence of from 264 to 269 and a non-basic control peptide (FSGGPL peptide) composed of Phe-Ser-Gly-Gly-Pro-Leu (SEQ ID NO: 12) which is an amino acid sequence of from 291 to 296, of GnT-V, were synthesized, and an influence of these peptides on growth of HUVEC was examined. The peptide was synthesized by a peptide synthesizer A432 (manufactured by Applied Biosystems), and purified by reverse phase HPLC, then, its molecular weight and degree of purification were confirmed by MALDI TOF-MS (Voyager-DE (registered trademark) RP; manufactured by PerSeptive Biosystems). The concentration of FGF-2 was measured by a known method (Barillari, G., et al., American J. Patho. 152, 1161-1166 (1998)). […] After centrifugation at 4° C. and 3000 rpm for 5 minutes, the supernatant was collected, the concentration of FGF-2 in the supernatant was measured in an FGF-2 ELISA system (manufactured by R&D Systems) according to a manual of this system.
As described above, various deficient variants of GnT-V and synthetic peptides were added at 4° C. to culture solution of HUVEC, and the amount of FGF-2 released from HSPG on HUVEC was measured.

[3] = tested on: HUVEC; test: HUVEC differentiation and growth, incorporation of [3H]-thymidine (DNA synthesis); assay type: cell-based, human; details: [3H]-thymidine incorporation; FIG. 2, 3B, 6
Description: For in vitro evaluation of induction of neovascularization by a GnT-V transformant, the amount of synthesis of DNA of human umbilical vein […] cells (HUVEC) after stimulation with culture solution of a GnT-V transformant was measured by a method of Soker et al.(Soker, S., et al., J. Biol. Chem. 272, 31582-31588 (1997)). HUVEC was inoculated on a 96-well plate coated with type I collagen at a rate of 2×10^3 cells per well, and 24 hours later, the medium was substituted with an MCDB131 medium (not containing FBS and FGF-2) containing 0.1% […] and a starved condition was maintained for 24 hours. The medium was substituted with culture solution of the WiDr cell transformed with the glycosyltransferase gene described in Example 1, and HUVEC was stimulated for 24 hours. HUVEC was maintained for 8 hours with [^3H]-thymidine (1 μCi/ml), and incorporation of [^3H]-thymidine into HUVEC was analyzed by MicroBeta-Counter (manufactured by Wallac) to measure the amount of synthesis of DNA. The result was shown as the mean value of assay results of 6 wells, and the standard deviation was measured. All experiments were repeated at least three times, and the same results were obtained. As apparent from FIG. 1, DNA synthesis of HUVEC stimulated with the culture solution of WiDr cells transformed with a GnT-V gene increased, however, the same effect was not observed in culture solution of WiDr cells transformed with other glycosyltransferase genes.
Purification of a neovascularization factor present in culture solution of WiDr cells transformed with a GnT-V gene was conducted using various column chromatographies. The neovascularization activity of each fraction was evaluated by differentiation and growth of HUVEC described in Example 3. In heparin affinity chromatography, a fraction of high growth activity of HUVEC was eluted with 0.3 M NaCl. Since known growth factors such as FGF-1, FGF-2, VEGF, placenta-induced growth factor (PIGF) and hepatocyte growth factor (HGF) and the like are eluted with 0.8 to 1.5 M NaCl (Hauser, S. & Weich H. A., Growth Factor 9, 259-268 (1993). Gohda, E., et al., J. Clin. Invest. 81, 414-419 (1998). Marez, A., et al., Biochimie 69, 125-129 (1987). Risau, W., et al., The EMBO J. 7, 959-962 (1988). Rothenthal, R. A., et al., Growth Factor 4, 53-59 (1990)), the above-mentioned nature is utterly different from the natures of these known growth factors. […] A fraction eluted with 0.3 M NaCl in heparin affinity chromatography was subjected to Western blot analysis using an anti-GnT-V antibody to find that the reaction of the anti-GnT-V antibody and the differentiation and growth activity of HUVEC are consistent each other, and the main protein having a differentiation and growth activity of HUVEC present in the fraction is GnT-V itself.

[4] = glycosyltransferase activity of GnT-V deficient variants; assay type: biochemical; details: recombinant variants from Sf21 cells
Text: For clarifying which domain of GnT-V is involved in HUVEC growth accelerating activity, a GnT-V lacking variant shown in FIG. 3A was produced. The method of production of a GnT-VΔ188 plasmid is disclosed in a literature of Sasai et al (Sasai, K., et al., Glycobiology (in press)). A transfer plasmid having a GnT-VΔ233 gene was produced by binding a DNA fragment of 1521 base pairs encoding polyhistidine tag at the C-terminal and an amino acid sequence of from Glu234 to Leu741 of human GnT-V, obtained by cutting a GnT-VΔ188 plasmid with EcoRI and EagI, to an EcoRI-EagI site of a transfer vector pAcGP67-A (manufactured by PharMingen). A transfer plasmid having a GnT-VΔ436 gene was produced by binding a DNA fragment of 912 base pairs encoding polyhistidine tag at the C terminal and an amino acid sequence of from Ile437 to Leu741, of human GnT-V, obtained by cutting a GnT-VΔ188 plasmid with EcoRV and EagI, to an EcoRV-EagI site of a transfer vector pAcGP67-A. For production of a recombinant Baculovirus, an insect cell Sf21 was transformed with the transfer plasmid obtained above according to a method known in a literature (Ikeda, Y., et al., J. Biochem. 128, 609-619 (2000)). The recombinant glycosyltransferase derived from the transformed Sf21 cell was purified by Ni^2+-chelating affinity chromatography according to a method disclosed in a literature of Sasaki et al (Sasai, K., et al., Glycobiology (in press)).

| Molecule | induction of neovascularization in CAM assay [1] | release of FGF-2 from HSPG on HUVEC [2] | differentiation and growth of HUVEC (HUVEC growth accelerating activity) [3] | glycosyltransferase activity [4] |
| --- | --- | --- | --- | --- |
| FGF-2: fibroblast growth factor-2 [reference compound] | induced neovascularization of chicken microvessels |  |  |  |
| FSGGPL [FSGGPL peptide, reference compound] | did not have a neovascularization activity | did not affect release of FGF-2 |  |  |
| KRKRKK [KRKRKK peptide] | induced neovascularization likewise | released FGF-2 | accelerated growth of HUVEC at the same degree as GnT-VΔ73 |  |
| heparin [reference compound] |  | induced release of FGF-2 |  |  |
| GnT-VΔ188: GnT-V lacking variant shown in FIG. 3A, recombinant from Sf21 cells (protein, UniProt Q09328 189-741, looked up, fragment) LSEVENWCPHLPWRAKNPYEEADHNSLAEIRTDFNILYSMMKKHEEFRWMRLRIRRMADAWIQAIKSLAEKQNLEKRKRKKVLVHLGLLTKESGFKIAETAFSGGPLGELVQWSDLITSLYLLGHDIRISASLAELKEIMKKVVGNRSGCPTVGDRIVELIYIDIVGLAQFKKTLGPSWVHYQCMLRVLDSFGTEPEFNHANYAQSKGHKTPWGKWNLNPQQFYTMFPHTPDNSFLGFVVEQHLNSSDIHHINEIKRQNQSLVYGKVDSFWKNKKIYLDIIHTYMEVHATVYGSSTKNIPSYVKNHGILSGRDLQFLLRETKLFVGLGFPYEGPAPLEAIANGCAFLNPKFNPPKSSKNTDFFIGKPTLRELTSQHPYAEVFIGRPHVWTVDLNNQEEVEDAVKAILNQKIEPYMPYEFTCEGMLQRINAFIEKQDFCHGQVMWPPLSALQVKLAEPGQSCKQVCQESQLICEPSFFQHLNKDKDMLKYKVTCQSSELAKDILVPSFDPKNKHCVFQGDLLLFSCAGAHPRHQRVCPCRDFIKGQVALCKDCL |  | released FGF-2 | had an HUVEC growth and differentiation accentuation action | had a glycosyltransferase activity |
| GnT-VΔ73: soluble recombinant GnT-V maintaining a glycosyltransferase activity but lacking in transmembrane portion, prepared by a Baculovirus system (protein, UniProt Q09328 74-741, looked up, fragment) AGVMTAYDLKKTLAVLLDNILQRIGKLESKVDNLVVNGTGTNSTNSTTAVPSLVALEKINVADIINGAQEKCVLPPMDGYPHCEGKIKWMKDMWRSDPCYADYGVDGSTCSFFIYLSEVENWCPHLPWRAKNPYEEADHNSLAEIRTDFNILYSMMKKHEEFRWMRLRIRRMADAWIQAIKSLAEKQNLEKRKRKKVLVHLGLLTKESGFKIAETAFSGGPLGELVQWSDLITSLYLLGHDIRISASLAELKEIMKKVVGNRSGCPTVGDRIVELIYIDIVGLAQFKKTLGPSWVHYQCMLRVLDSFGTEPEFNHANYAQSKGHKTPWGKWNLNPQQFYTMFPHTPDNSFLGFVVEQHLNSSDIHHINEIKRQNQSLVYGKVDSFWKNKKIYLDIIHTYMEVHATVYGSSTKNIPSYVKNHGILSGRDLQFLLRETKLFVGLGFPYEGPAPLEAIANGCAFLNPKFNPPKSSKNTDFFIGKPTLRELTSQHPYAEVFIGRPHVWTVDLNNQEEVEDAVKAILNQKIEPYMPYEFTCEGMLQRINAFIEKQDFCHGQVMWPPLSALQVKLAEPGQSCKQVCQESQLICEPSFFQHLNKDKDMLKYKVTCQSSELAKDILVPSFDPKNKHCVFQGDLLLFSCAGAHPRHQRVCPCRDFIKGQVALCKDCL | induced neovascularization of chicken microvessels | released FGF-2 | increased in addition amount-dependent manner; also recorded: had an HUVEC growth and differentiation accentuation action |  |
| α1,6-fucosyltransferase (protein, UniProt Q9BYC5 1-575, looked up, recombinant α1,6-fucosyltransferase used as control glycosyltransferase) Alpha-(1,6)-fucosyltransferase: MRPWTGSWRWIMLILFAWGTLLFYIGGHLVRDNDHPDHSSRELSKILAKLERLKQQNEDLRRMAESLRIPEGPIDQGPAIGRVRVLEEQLVKAKEQIENYKKQTRNGLGKDHEILRRRIENGAKELWFFLQSELKKLKNLEGNELQRHADEFLLDLGHHERSIMTDLYYLSQTDGAGDWREKEAKDLTELVQRRITYLQNPKDCSKAKKLVCNINKGCGYGCQLHHVVYCFMIAYGTQRTLILESQNWRYATGGWETVFRPVSETCTDRSGISTGHWSGEVKDKNVQVVELPIVDSLHPRPPYLPLAVPEDLADRLVRVHGDPAVWWVSQFVKYLIRPQPWLEKEIEEATKKLGFKHPVIGVHVRRTDKVGTEAAFHPIEEYMVHVEEHFQLLARRMQVDKKRVYLATDDPSLLKEAKTKYPNYEFISDNSISWSAGLHNRYTENSLRGVILDIHFLSQADFLVCTFSSQVCRVAYEIMQTLHPDASANFHSLDDIYYFGGQNAHNQIAIYAHQPRTADEIPMEPGDIIGVAGNHWDGYSKGVNRKLGRTGLYPSYKVREKIETVKYPTYPEAEK |  |  | did not show HUVEC growth accelerating activity at all |  |
